How the values were obtained:
[1] = Cytotoxicity against human Chang liver cells assessed as cell growth inhibition measured after 24 hrs by DAPI and propidium iodide staining based assay; format: toxicity
M-HeLa = assay: Anticancer activity against human HelaM cells assessed as cell growth inhibition measured after 24 hrs by DAPI and propidium iodide staining based assay; format: functional
FaDu = assay: Anticancer activity against human FaDu cells assessed as cell growth inhibition; format: functional, cell-based

| IC50 (M-HeLa) | SMILES | IC50 at 24 h [1] | IC50 (FaDu) |
| --- | --- | --- | --- |
| ≥ 14.7 µM | O=c1oc2ccccc2c(O)c1-c1ccccc1 | > 100 µM |  |
|  | O=C1Nc2ccccc2[C@@]12N[C@H](Cc1c[nH]cn1)[C@@H]([N+](=O)[O-])[C@@H]2c1ccccc1Cl |  | ≥ 30 µM |
|  | COc1ccc([C@H]2[C@H]([N+](=O)[O-])[C@@H](Cc3c[nH]cn3)N[C@]23C(=O)Nc2ccccc23)cc1 |  | ≥ 30 µM |
|  | O=C1Nc2ccccc2[C@@]12N[C@H](Cc1c[nH]c3ccccc13)[C@@H]([N+](=O)[O-])[C@@H]2c1ccc(Br)cc1 |  | 39.7 µM |
|  | O=C1Nc2ccc(OC(F)(F)F)cc2[C@@]12N[C@H](Cc1c[nH]c3ccccc13)[C@@H]([N+](=O)[O-])[C@@H]2c1ccccc1 |  | ≥ 30 µM |
| 14.7 µM | Oc1cc2c(cc1-c1ccccc1)OCO2 | > 100 µM |  |
|  | O=C1Nc2ccc(OC(F)(F)F)cc2[C@@]12N[C@H](Cc1c[nH]c3ccccc13)[C@@H]([N+](=O)[O-])[C@@H]2c1ccc(Br)cc1 |  | ≥ 30 µM |
| ≥ 14.7 µM | CCCCCCc1ccc(Nc2c([N+](=O)[O-])c(Cl)cc3c2no[n+]3[O-])cc1O | > 100 µM |  |
|  | Cc1ccc([C@H]2[C@H]([N+](=O)[O-])[C@@H](Cc3c[nH]c4ccccc34)N[C@]23C(=O)Nc2ccc(OC(F)(F)F)cc23)cc1 |  | ≥ 30 µM |
| ≥ 14.7 µM | CN(C)CCc1ccc(Nc2c([N+](=O)[O-])c(Cl)cc3c2no[n+]3[O-])cc1O | > 100 µM |  |
|  | O=C1Nc2ccc(OC(F)(F)F)cc2[C@@]12N[C@H](Cc1c[nH]c3ccccc13)[C@@H]([N+](=O)[O-])[C@@H]2c1ccccc1Cl |  | ≥ 30 µM |
|  | O=C1Nc2ccc(OC(F)(F)F)cc2[C@@]12N[C@H](Cc1c[nH]cn1)[C@@H]([N+](=O)[O-])[C@@H]2c1cccc([N+](=O)[O-])c1 |  | ≥ 30 µM |
|  | O=C1Nc2ccccc2[C@@]12N[C@H](Cc1c[nH]cn1)[C@@H]([N+](=O)[O-])[C@@H]2c1cccc([N+](=O)[O-])c1 |  | ≥ 30 µM |
|  | O=C1Nc2ccc(OC(F)(F)F)cc2[C@@]12N[C@H](Cc1c[nH]cn1)[C@@H]([N+](=O)[O-])[C@@H]2c1ccccc1Cl |  | ≥ 30 µM |
| ≥ 14.7 µM | COc1ccc(-c2ccc(Nc3c([N+](=O)[O-])c(Cl)cc4c3no[n+]4[O-])cc2O)cc1 | > 100 µM |  |
| ≥ 14.7 µM | O=[N+]([O-])c1c(Cl)cc2c(no[n+]2[O-])c1Nc1ccc(-c2ccc(F)cc2)c(O)c1 | > 100 µM |  |
| ≥ 14.7 µM | CCCCCCc1c(O)c2ccccc2oc1=O | > 100 µM |  |
|  | O=C1Nc2ccc(OC(F)(F)F)cc2[C@@]12N[C@H](Cc1c[nH]c3ccccc13)[C@@H]([N+](=O)[O-])[C@@H]2c1cccc([N+](=O)[O-])c1 |  | ≥ 30 µM |
|  | COc1ccc([C@H]2[C@H]([N+](=O)[O-])[C@@H](Cc3c[nH]cn3)N[C@]23C(=O)Nc2ccc(OC(F)(F)F)cc23)cc1 |  | ≥ 30 µM |
|  | O=C1Nc2ccccc2[C@@]12N[C@H](Cc1c[nH]cn1)[C@@H]([N+](=O)[O-])[C@@H]2c1ccc(Br)cc1 |  | 40.1 µM |
|  | O=C1Nc2ccccc2[C@@]12N[C@H](Cc1c[nH]cn1)[C@@H]([N+](=O)[O-])[C@@H]2c1ccccc1 |  | 43 µM |
| ≥ 14.7 µM | COc1ccc(-c2c(O)cc(C)oc2=O)cc1 | > 100 µM |  |
| ≥ 14.7 µM | Cc1cc(O)c(-c2ccccc2)c(=O)o1 | > 100 µM |  |
| ≥ 14.7 µM | O=c1oc2ccccc2c(O)c1-c1ccc(Br)cc1 | > 100 µM |  |
|  | O=C1Nc2ccccc2[C@@]12N[C@H](Cc1c[nH]c3ccccc13)[C@@H]([N+](=O)[O-])[C@@H]2c1cccc([N+](=O)[O-])c1 |  | ≥ 30 µM |

| SMILES | IC50 (M-HeLa) | IC50 at 24 h [1] | IC50 (FaDu) |
| --- | --- | --- | --- |
| O=c1oc2ccccc2c(O)c1C1CCCCC1 | ≥ 14.7 µM | > 100 µM |  |
| Oc1ccc2c(c1)OCO2 | 14.7 µM | > 100 µM |  |
| O=c1cc(O)c2ccccc2o1 [4-HYDROXYCOUMARINS] | ≥ 14.7 µM | > 100 µM |  |
